Holding throughout (type): binding
The target of data set [1] is DCN1 (DCUND1) protein PONY domain (Homo sapiens (Human), UniProt Q96GG9). Kind of data set: Off-rate measurement of reversible covalent molecules (jump dilution TR-FRET with Cy5 probe). The following applies: for Category: binding mode category from off-rate assay; for residence time: inverse of rate constant K; for residence time / half-life: jump dilution TR-FRET; for koff: jump dilution, Cy5 covalent probe 150 nM, TR-FRET; for half-life: ln(2)/K.
DCN1 (DCUND1) protein PONY domain, sequence (Q96GG9 60-248): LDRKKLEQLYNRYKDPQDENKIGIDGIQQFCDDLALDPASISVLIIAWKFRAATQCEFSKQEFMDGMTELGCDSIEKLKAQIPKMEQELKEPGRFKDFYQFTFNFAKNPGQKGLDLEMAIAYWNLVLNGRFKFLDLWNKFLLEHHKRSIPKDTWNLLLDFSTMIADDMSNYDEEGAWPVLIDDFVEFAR

Data set [2] concerns the target DCN2 (DCUND2) protein PONY domain (Homo sapiens (Human), UniProt Q6PH85). Nature of the data set: Measurement of Kinact/KI in the DCN2 TR-FRET Assay. The following applies: for kinact/KI: read-out: Kinact/KI (converted); for Ki / kinact: time-dependent IC50 over 24 hrs; for kinact: read-out: Kinact (converted). As for the experimental part: A TR-FRET Assay was performed to evaluate the ability of the compounds to bind DCN-2.
The time resolved—Forster's resonance energy transfer (TR-FRET) assay was designed following the protocol established in (Scott et al., Nat Chem Biol. 2017 August; 13(8): 850-857). A recombinant form of the DCN2 (DCUND2) protein PONY domain was produced using an E. coli expression system at Viva Biotech China. The DCN2 protein was biotinylated (EZ sulfo-NHS-LC-biotin; Thermofisher) for labeling with 2.5 nM streptavidin terbium (Tb) cryptate in the reaction. The probe was changed to a non-covalent DCN1 inhibitor labeled with carboxyfluorescein (FAM; Zhou et al, Nat Commun. 2017; 8: 1150). Buffer conditions were modified to enhance protein stability by replacing TritonX with 0.05% Tween20 and increasing NaCl to 200 mM. The compounds were screened against 0.31 nM DCN1 and 40 nM FAM-labeled probe in a 40 ul reaction volume. The TR-FRET ratio between Tb-DCN1 and the FAM-labeled probe was measured in a 384-well opti-plate (Perkin Elmer) using a plate reader (BMG) at after treatment with compound (final DMSO concentration of 0.1%). The ratio was normalized to the high (DCN1 and FAM-probe) and low (DCN1 and no probe) controls for a readout of % activity (=100*(x−low)/(high−low)).
The Kinact and KI measurements were taken to allow for continuous reads over 24 hrs. Plates were read every 5 min up to 1 hr, every 15 min up to 5 hr, and every hour up to […]. Kinact and KI were calculated based on the following equations (Krippendorff B F, et al. Mechanism-based inhibition: deriving K(I) and k(inact) directly from time-dependent IC(50) values. J BiomolScreen. 2009; Mons E et al. A Comprehensive Guide for Assessing Covalent Inhibition in Enzymatic Assays Illustrated with Kinetic Simulations. CurrProtoc. 2022) where the KM of the probe against DCN2 is 21.62 nM. The Kinact and KI values could be estimated from the tight curves of the IC50 values over time.

The target of data set [3] is DCN1 protein (Homo sapiens (Human), UniProt Q96GG9). Nature of the data set: Intact Protein MS Analysis with the RapidFire-TOF System (covalent adduct formation). The following applies: MS Emax; 400 nM DCN1, 3 hours at room temperature. An outline of the steps: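 Tag-cleaved human DCN1 (400 nM) expressed in E. coli, in 25 mM Tris-HCl, 200 mM NaCl, 1 mM DTT, was incubated with 11 compound concentrations for 3 h at room temperature and quenched with 0.2% formic acid. Intact-protein Q-TOF MS with deconvolution detected the compound adduct mass.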
DCN1 protein, sequence (Q96GG9 whole entry): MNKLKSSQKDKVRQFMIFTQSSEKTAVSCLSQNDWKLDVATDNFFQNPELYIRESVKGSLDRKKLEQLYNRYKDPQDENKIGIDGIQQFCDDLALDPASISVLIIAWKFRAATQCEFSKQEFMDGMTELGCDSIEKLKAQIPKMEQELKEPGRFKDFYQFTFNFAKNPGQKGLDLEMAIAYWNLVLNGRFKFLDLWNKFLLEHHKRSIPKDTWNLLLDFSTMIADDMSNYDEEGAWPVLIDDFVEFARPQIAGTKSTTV

The structures appear in SMILES notation.

DCN2 (DCUND2) protein PONY domain, sequence (Q6PH85 60-248): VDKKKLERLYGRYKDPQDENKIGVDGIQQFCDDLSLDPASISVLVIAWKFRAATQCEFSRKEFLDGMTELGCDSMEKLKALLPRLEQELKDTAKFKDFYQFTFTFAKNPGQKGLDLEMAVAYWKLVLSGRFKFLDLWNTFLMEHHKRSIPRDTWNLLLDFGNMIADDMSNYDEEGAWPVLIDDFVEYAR

The kinact is the rate constant of inactivation at saturating inhibitor. As to `CCN1C(=O)[C@@H](NC(=O)c2cccc(C(F)(F)F)c2)[C@@H](c2ccc(F)cc2)c2c(C(=O)N3CCNC[C@H]3C#N)nn(C3CCOCC3)c21` [Compound I-363, N-((4S,5S)-3-((S)-2-cyanopiperazine-1-carbonyl)-7-ethyl-4-(4-fluorophenyl)-6-oxo-1-(tetrahydro-2H-pyran-4-yl)-4,5,6,7-tetrahydro-1H-pyrazolo[3,4-b]pyridin-5-yl)-3-(trifluoromethyl)benzamide], in data set [1], the Category result is on record as “slow reversible”. For the same compound, in data set [2], the kinact/KI was 263000 M⁻¹ s⁻¹, the Ki worked out at 17.4 nM and the kinact was 0.00459 s⁻¹. For the same compound, in data set [3], the “% Adduct Formation” value is “+++ (MS Emax % adduct formation greater than 80.0 and less than or equal to 100.0)”.
Turning to `CCN1C(=O)[C@@H](NC(=O)c2cccc(C(F)(F)F)c2)[C@@H](c2ccc(F)cc2)c2c(NC(=O)C3=CCC3)nn(-c3ccccc3)c21` (racemic) [Compound I-152], the “% Adduct Formation” value in data set [3] was “+ (MS Emax % adduct formation greater than or equal to 0.0 and less than or equal to 30.0)”.
Regarding `CCN1C(=O)[C@@H](NC(=O)c2cccc(C(F)(F)F)c2)[C@@H](c2ccc(F)cc2)c2c(CNC(=O)/C=C/C(=O)OC)nn(-c3ccccc3)c21` (racemic) [Compound I-3], in data set [3], the “% Adduct Formation” value was “+++ (MS Emax % adduct formation greater than 80.0 and less than or equal to 100.0)”.
As to `CCN1C(=O)[C@@H](NC(=O)c2cccc(C(F)(F)F)c2)[C@@H](c2ccc(F)cc2)c2c([C@@H](C)NC#N)nn(-c3ccccc3)c21` [Compound I-73, N-((4S,5S)-3-((R)-1-cyanamidoethyl)-7-ethyl-4-(4-fluorophenyl)-6-oxo-1-phenyl-4,5,6,7-tetrahydro-1H-pyrazolo[3,4-b]pyridin-5-yl)-3-(trifluoromethyl)benzamide], the Category result in data set [1] is listed as “irreversible covalent”. In data set [2], the kinact/KI is 83300 M⁻¹ s⁻¹, the Ki worked out at 46.4 nM and the kinact was 0.00384 s⁻¹. Besides, in data set [3], the “% Adduct Formation” value is “+++ (MS Emax % adduct formation greater than 80.0 and less than or equal to 100.0)”.
As usually defined, the koff is a measure of how fast the partners let go of each other. A lower koff goes with a long-lived complex. One may read the half-life as the time in which the quantity being followed falls by half. In the case of `CCN1C(=O)[C@@H](NC(=O)c2cccc(C(F)(F)F)c2)[C@@H](c2ccc(F)cc2)c2c(C(=O)N(C)[C@H](C#N)CCN(C)C)nn(C3CCOCC3)c21` [Compound I-370], in data set [1], the Category result is recorded as “fast reversible”, the residence time stood at 78.6 min, the koff is 0.000212 s⁻¹ and the half-life came out at 54.5 min. Further, in data set [2], the kinact/KI is 107000 M⁻¹ s⁻¹, the Ki came out at 0.488 nM and the kinact is 5.17e-05 s⁻¹. Besides, the “% Adduct Formation” value in data set [3] is “+++ (MS Emax % adduct formation greater than 80.0 and less than or equal to 100.0)”.
Regarding `CCN1C(=O)[C@@H](NC(=O)c2cccc(C(F)(F)F)c2)[C@@H](c2ccc(F)cc2)c2c(C(=O)N3[C@H](C#N)C[C@H]4C[C@H]43)nn(-c3ccccc3)c21` [Compound I-277], the “% Adduct Formation” value in data set [3] was “+++ (MS Emax % adduct formation greater than 80.0 and less than or equal to 100.0)”.
Still for that read-out and setting: to `CCN1C(=O)[C@@H](NC(=O)c2cccc(C(F)(F)F)c2)[C@@H](c2ccc(F)cc2)c2c(C(=O)N3CCC[C@H]3C#N)nn(-c3ccccc3)c21` [Compound I-278] belongs “+++ (MS Emax % adduct formation greater than 80.0 and less than or equal to 100.0)”.
`CCN1C(=O)[C@@H](NC(=O)c2cccc(C(F)(F)F)c2)[C@@H](c2ccc(F)cc2)c2c(C(=O)N3CCNCC3C#N)nn(C3CCOCC3)c21` (stereo partly drawn) [Compound I-334]: the “% Adduct Formation” value in data set [3] is “+++ (MS Emax % adduct formation greater than 80.0 and less than or equal to 100.0)”.
On to `CCN1C(=O)[C@@H](NC(=O)c2cccc(C(F)(F)F)c2)[C@@H](C2CC2)c2c(C(=O)N3CS(=O)(=O)C[C@H]3C#N)nn(C3CCOCC3)c21` [Compound I-617], for which, in data set [1], the Category entry is “fast reversible”, the residence time came out at 66.3 min, the koff is 0.000251 s⁻¹ and the half-life was 45.95 min.
For the compound `CCN1C(=O)[C@@H](NC(=O)c2cccc(C(F)(F)F)c2)[C@@H](C2CC2)c2c(C(=O)N3CCNC[C@H]3C#N)nn(-c3ccccc3)c21` [Compound I-383], the Category result in data set [1] is “irreversible covalent”. For the same compound, in data set [2], the kinact/KI is 48300 M⁻¹ s⁻¹, the Ki worked out at 95.8 nM and the inactivation rate constant (kinact) was 0.00465 s⁻¹. The “% Adduct Formation” value in data set [3] is “+++ (MS Emax % adduct formation greater than 80.0 and less than or equal to 100.0)”.
Turning to `CCN1C(=O)[C@@H](NC(=O)c2cccc(C(F)(F)F)c2)[C@@H](C2CC2)c2c(C(=O)N3C[C@H](OC)C[C@H]3C#N)nn(C3CCOCC3)c21` [Compound I-377], in data set [2], the kinact/KI is 21700 M⁻¹ s⁻¹, the Ki turned out to be 161 nM and the kinact is 0.00354 s⁻¹. In addition, the “% Adduct Formation” value in data set [3] was “+++ (MS Emax % adduct formation greater than 80.0 and less than or equal to 100.0)”.
For the compound `CCN1C(=O)[C@@H](NC(=O)c2cccc(C(F)(F)F)c2)[C@@H](c2ccc(F)cc2)c2c(CN(C)C#N)nn(-c3ccccc3)c21` [Compound I-92], the “% Adduct Formation” value in data set [3] was “+++ (MS Emax % adduct formation greater than 80.0 and less than or equal to 100.0)”.
On to `CCc1cccc(C(=O)N[C@@H]2C(=O)N(CC)c3c(c(C(=O)N4[C@H](C#N)C[C@H]5C[C@H]54)nn3C3CCOCC3)[C@@H]2C2CC2)c1` [Compound I-552, N-((4S,5S)-3-((1R,3S,5R)-3-cyano-2-azabicyclo[3.1.0]hexane-2-carbonyl)-4-cyclopropyl-7-ethyl-6-oxo-1-(tetrahydro-2H-pyran-4-yl)-4,5,6,7-tetrahydro-1H-pyrazolo[3,4-b]pyridin-5-yl)-3-ethylbenzamide], for which, in data set [1], the Category result is “reversible covalent”, the residence time worked out at 224 min, the koff was 7.5e-05 s⁻¹ and the half-life amounted to 155.6 min. Moreover, in data set [2], the kinact/KI was 333000 M⁻¹ s⁻¹, the Ki was 17 nM and the kinact was 0.00566 s⁻¹.
`CCN1C(=O)[C@@H](NC(=O)c2cccc(C(F)(F)F)c2)[C@@H](C2CC2)c2c(C(=O)N3CCS(=O)(=O)C[C@H]3C#N)nn(C3CCOCC3)c21` (mixture of isomers) [Compound I-379]: in data set [1], the Category entry is on record as “reversible covalent”, the residence time was determined as 78.9 min, the koff was 0.000211 s⁻¹ and the half-life is 54.69 min. Besides, the “% Adduct Formation” value in data set [3] was “+++ (MS Emax % adduct formation greater than 80.0 and less than or equal to 100.0)”.
In the case of `CCN1C(=O)[C@@H](NC(=O)c2cccc(C(F)(F)F)c2)[C@@H](c2ccc(F)cc2)c2c(C(=O)N3CCC[C@H]3C#N)nn(-c3ccccc3)c21` (mixture of isomers) [Compound I-34], the “% Adduct Formation” value in data set [3] is “+++ (MS Emax % adduct formation greater than 80.0 and less than or equal to 100.0)”.
`CCN1C(=O)[C@@H](NC(=O)c2cccc(C(F)(F)F)c2)[C@@H](C2CC2)c2c(C(=O)N3CCNC[C@H]3C#N)nn(C3CCOCC3)c21` [Compound I-582]: the Category result in data set [1] is given as “irreversible covalent”.
As to `CCN1C(=O)[C@@H](NC(=O)c2cccc(C(F)(F)F)c2)[C@@H](c2ccc(F)cc2)c2c(C(=O)NC3(C#N)CC3)nn(-c3ccccc3)c21` [Compound I-112], the “% Adduct Formation” value in data set [3] is “+++ (MS Emax % adduct formation greater than 80.0 and less than or equal to 100.0)”.
In the case of `CCN1C(=O)[C@@H](NC(=O)c2cccc(C(F)(F)F)c2)[C@@H](c2ccc(F)cc2)c2c(CNC#N)nn(-c3ccccc3)c21` [Compound I-140, N-[(4S, 5S)-3-[(cyanoamino)methyl]-7-ethyl-4-(4-fluorophenyl)-6-oxo-1-phenyl-4,5-dihydropyrazolo[3,4-b]pyridine-5-yl]-3-(trifluoromethyl) benzamide], the “% Adduct Formation” value in data set [3] is “+++ (MS Emax % adduct formation greater than 80.0 and less than or equal to 100.0)”.
`CCN1C(=O)[C@@H](NC(=O)c2cccc(C(F)(F)F)c2)[C@@H](C2CC2)c2c(C(=O)N3C[C@H](F)C[C@H]3C#N)nn(C3CCOCC3)c21` [Compound I-372]: in data set [2], the kinact/KI was 13300 M⁻¹ s⁻¹, the Ki was found to be 229 nM and the kinact is 0.00313 s⁻¹. Also, the “% Adduct Formation” value in data set [3] is “+++ (MS Emax % adduct formation greater than 80.0 and less than or equal to 100.0)”.

Source of the values: patent publication US20250163057A1, “DCN-1 MODULATING COMPOUNDS AND METHODS OF USE THEREOF” (Cellarity, Inc., priority 2023, published 2025).
